Results from patent US10167279B2 (NOVARTIS AG, priority 2014, dated 2019).
pIC50: −log10 of the molar value.

How the values were obtained:
C-Raf FL = C-Raf FL (Homo sapiens (Human), UniProt P04049, Y340E/Y341E); experiment: In vitro Raf activity determination (Alpha Screen, phospho-MEK), C-Raf FL (full length, Y340E/Y341E); type: biochemical; details: ATP 1 μM; 60 min pre-incubation; 1 hour reaction; column head does not say FL or TR
In short: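 Sf9-expressed C-Raf incubated with biotinylated kinase-dead MEK1 (K97R) in 50 mM Tris pH 7.5, 15 mM MgCl2, 0.01% BSA, 1 mM DTT with compound, 60 min at room temperature. Phospho-MEK detected by anti-p-MEK AlphaScreen luminescence; IC50 by non-linear regression.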

b-Raf (V600E) = b-Raf (V600E) (Homo sapiens (Human), UniProt P15056, V600E); experiment: In vitro Raf activity determination (Alpha Screen, phospho-MEK), b-Raf (V600E); type: biochemical; details: ATP 10 μM, 60 min pre-incubation, 3 hours reaction
Chain of b-Raf (V600E) (P15056 whole entry V600E): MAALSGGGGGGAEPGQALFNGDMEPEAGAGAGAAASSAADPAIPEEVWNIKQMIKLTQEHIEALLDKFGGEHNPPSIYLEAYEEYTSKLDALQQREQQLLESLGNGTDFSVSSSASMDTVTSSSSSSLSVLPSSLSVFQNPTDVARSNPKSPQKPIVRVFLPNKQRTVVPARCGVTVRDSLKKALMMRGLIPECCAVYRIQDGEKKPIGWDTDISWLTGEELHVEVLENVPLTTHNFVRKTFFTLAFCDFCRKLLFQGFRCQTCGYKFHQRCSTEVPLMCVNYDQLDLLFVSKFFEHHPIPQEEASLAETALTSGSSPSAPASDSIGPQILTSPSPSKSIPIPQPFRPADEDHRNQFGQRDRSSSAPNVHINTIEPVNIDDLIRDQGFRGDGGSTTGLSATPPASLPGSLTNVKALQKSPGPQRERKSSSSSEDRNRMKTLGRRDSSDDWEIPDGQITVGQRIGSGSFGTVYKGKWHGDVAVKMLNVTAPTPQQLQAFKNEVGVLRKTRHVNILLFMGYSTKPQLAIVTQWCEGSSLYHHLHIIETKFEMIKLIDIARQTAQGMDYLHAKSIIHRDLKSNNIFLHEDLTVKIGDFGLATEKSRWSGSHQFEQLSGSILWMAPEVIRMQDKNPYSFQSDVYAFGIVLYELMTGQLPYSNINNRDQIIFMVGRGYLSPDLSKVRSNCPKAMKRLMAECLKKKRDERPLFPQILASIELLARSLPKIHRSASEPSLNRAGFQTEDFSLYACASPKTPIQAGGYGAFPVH
From the text: The activity of a compound according to the present invention can be assessed by well-known in vitro & in vivo methods. Raf inhibition data provided herein was obtained using the following procedures.
Sf9 cells co-expressing both proteins were lysed and subjected to immobilized nickel chromatography and eluted with Imidazole. A second column (StrepII binding column) was used and eluted with desthiobiotin. Protein Tags were removed using Prescission enzyme and the protein was further purified using a flowthrough step to remove tags.
Full length MEK1 with an inactivating K97R ATP binding site mutation is utilized as a RAF substrate. The MEK1 cDNA was subcloned with an N-terminal (his)6 tag into a vector for E. Coli expression. The MEK1 substrate was purified from E. Coli lysate by nickel affinity chromatography followed by anion exchange. The final MEK1 preparation was biotinylated (Pierce EZ-Link Sulfo-NHS-LC-Biotin) and concentrated.
The plate was incubated for 60 minutes at room temperature. […] The additions were carried out under dark conditions to protect the detection beads from light. A lid was placed on top of the plate and incubated for 1 hour at room temperature, after which the luminescence was read on a PerkinElmer Envision instrument.

Chain of C-Raf FL (P04049 whole entry Y340E/Y341E): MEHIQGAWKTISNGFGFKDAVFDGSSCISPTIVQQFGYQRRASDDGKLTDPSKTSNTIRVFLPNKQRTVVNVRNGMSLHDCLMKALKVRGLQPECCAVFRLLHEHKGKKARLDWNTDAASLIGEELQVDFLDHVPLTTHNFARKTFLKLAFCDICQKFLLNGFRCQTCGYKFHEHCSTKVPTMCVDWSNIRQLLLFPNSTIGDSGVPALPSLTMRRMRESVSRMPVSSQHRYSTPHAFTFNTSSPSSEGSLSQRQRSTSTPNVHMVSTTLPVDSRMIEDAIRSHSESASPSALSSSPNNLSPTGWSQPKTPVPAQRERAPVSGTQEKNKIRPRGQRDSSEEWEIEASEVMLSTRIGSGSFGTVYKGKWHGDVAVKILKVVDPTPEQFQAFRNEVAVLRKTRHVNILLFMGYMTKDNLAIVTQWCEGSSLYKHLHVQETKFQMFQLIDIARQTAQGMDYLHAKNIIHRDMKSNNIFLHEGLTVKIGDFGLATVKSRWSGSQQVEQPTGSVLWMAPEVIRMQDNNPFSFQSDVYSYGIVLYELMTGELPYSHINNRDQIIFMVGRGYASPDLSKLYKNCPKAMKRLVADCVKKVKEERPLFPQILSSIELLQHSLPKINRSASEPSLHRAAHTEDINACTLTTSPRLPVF
Chain of C-Raf FL (P63104 whole entry partner): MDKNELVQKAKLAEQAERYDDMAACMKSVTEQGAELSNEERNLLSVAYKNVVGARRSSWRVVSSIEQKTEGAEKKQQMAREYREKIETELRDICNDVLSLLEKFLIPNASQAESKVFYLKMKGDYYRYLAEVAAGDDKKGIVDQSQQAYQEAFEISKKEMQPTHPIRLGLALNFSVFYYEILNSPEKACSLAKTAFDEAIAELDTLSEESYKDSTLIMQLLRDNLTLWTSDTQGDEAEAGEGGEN

| Structure (SMILES) | pIC50 (C-Raf FL) | pIC50 (b-Raf (V600E)) |
| --- | --- | --- |
| COc1ncc(-c2cc(NC(=O)c3ccnc(C(C)(F)F)c3)cnc2C)cc1C1(O)COC1 [Example 77, 2-(1,1-difluoroethyl)-N-(5′-(3-hydroxyoxetan-3-yl)-6′-methoxy-2-methyl-[3,3′-bipyridin]-5-yl)isonicotinamide] | 8.45 | 7.62 |
| COc1ncc(-c2cc(NC(=O)c3cccc(C(F)(F)F)c3)cnc2C)cc1C1(CF)COC1 [Example 49, N-(5′-(3-(fluoromethyl)oxetan-3-yl)-6′-methoxy-2-methyl-[3,3′-bipyridin]-5-yl)-3-(trifluoromethyl)benzamide] | 9.93 | 9.33 |
| COc1ncc(-c2cc(NC(=O)c3ccnc(C(C)(F)F)c3)ccc2C)cc1C1(O)COC1 [Example 74, 2-(1,1-difluoroethyl)-N-(3-(5-(3-hydroxyoxetan-3-yl)-6-methoxypyridin-3-yl)-4-methylphenyl)isonicotin-amide] | 9.44 | 8.68 |
| Cc1ccc(NC(=O)c2ccnc(C(C)(F)F)c2)cc1-c1cnc(-c2cnn(C)c2)c(C2(O)COC2)c1 [Example 144, 2-(1,1-difluoroethyl)-N-(3-(5-(3-hydroxyoxetan-3-yl)-6-(1-methyl-1H-pyrazol-4-yl)pyridin-3-yl)-4-methylphenyl)isonicotin-amide] | 9.44 | 8.78 |
| Cc1ncc(NC(=O)c2ccnc(C(C)(C)F)c2)cc1-c1cccc(C2(C)COC2)c1 [Example 69, 2-(2-fluoropropan-2-yl)-N-(6-methyl-5-(3-(3-methyloxetan-3-yl)phenyl)pyridin-3-yl)isonicotinamide] | 9.05 | 8.29 |
| COc1ncc(-c2cc(NC(=O)c3cc(C(C)(F)F)ccn3)cnc2C)cc1C1(F)COC1 [Example 90, 4-(1,1-difluoroethyl)-N-(5′-(3-fluorooxetan-3-yl)-6′-methoxy-2-methyl-[3,3′-bipyridin]-5-yl)picolinamide] | 9.41 | 8.44 |
| COc1ncc(-c2cc(NC(=O)c3cc(C(C)(C)N)cc(C(F)(F)F)c3)ccc2C)cc1C1(F)COC1 [Example 107, 3-(2-aminopropan-2-yl)-N-(3-(5-(3-fluorooxetan-3-yl)-6-methoxypyridin-3-yl)-4-methylphenyl)-5-(trifluoromethyl)benzamide] | 9.14 | 8.53 |
| COc1ncc(-c2cc(NC(=O)c3cc(C(F)(F)F)ccn3)cnc2C)cc1C1(O)COC1 [Example 78, N-(5′-(3-hydroxyoxetan-3-yl)-6′-methoxy-2-methyl-[3,3′-bipyridin]-5-yl)-4-(trifluoromethyl)picolin-amide] | 8.49 | 7.63 |
| CCOc1ncc(-c2cc(NC(=O)c3cnnc(C(C)(C)C#N)c3)cnc2C)cc1C1(C)COC1 [Example 65, 6-(2-cyanopropan-2-yl)-N-(6′-ethoxy-2-methyl-5′-(3-methyloxetan-3-yl)-[3,3′-bipyridin]-5-yl)pyridazine-4-carboxamide] | 8.95 | 8.15 |
| Cc1ncc(NC(=O)c2cc(C(C)(C)C#N)ccn2)cc1-c1cccc(C2(C)COC2)c1 [Example 126, 4-(2-cyanopropan-2-yl)-N-(6-methyl-5-(3-(3-methyloxetan-3-yl)phenyl)pyridin-3-yl)picolinamide] | 8.71 | 8.11 |
| CCOc1nnc(-c2cc(NC(=O)c3ccnc(C(C)(C)F)c3)cnc2C)cc1C1(C)COC1 [Example 128, N-(5-(6-ethoxy-5-(3-methyloxetan-3-yl)pyridazin-3-yl)-6-methylpyridin-3-yl)-2-(2-fluoropropan-2-yl)isonicotinamide] | 9.20 | 8.67 |
| COc1ncc(-c2cc(NC(=O)c3cc(C(C)(F)F)ccn3)ccc2C)cc1C1(F)COC1 [Example 89, 4-(1,1-difluoroethyl)-N-(3-(5-(3-fluorooxetan-3-yl)-6-methoxypyridin-3-yl)-4-methylphenyl)picolinamide] |  | 8.93 |
| COc1ncc(-c2cc(NC(=O)c3cc(C(C)(F)F)ccn3)cnc2C)cc1C1(O)COC1 [Example 91] |  | 7.88 |
| Cc1ccc(NC(=O)c2ccnc(C(C)(C)C#N)c2)cc1-c1cc(C2CCOCC2)nc(N(CCO)CCO)c1 [Example 179, N-(3-(2-(bis(2-hydroxyethyl)amino)-6-(tetrahydro-2H-pyran-4-yl)pyridin-4-yl)-4-methylphenyl)-2-(2-cyanopropan-2-yl) isonicotinamide] | 9.10 |  |
| Cc1ccc(NC(=O)c2ccnc(C(C)(F)F)c2)cc1-c1c[nH]c(=O)c(C2(O)COC2)c1 [Example 13, 2-(1,1-difluoroethyl)-N-(3-(5-(3-hydroxyoxetan-3-yl)-6-oxo-1,6-dihydropyridin-3-yl)-4-methylphenyl)isonicotinamide] | 9.00 |  |
| Cc1ccc(NC(=O)c2ccnc(Cl)c2)cc1-c1cc(OCCO)nc(C2CCOCC2)c1 [Example 264, 2-chloro-N-(3-(2-(2-hydroxyethoxy)-6-(tetrahydro-2H-pyran-4-yl)pyridin-4-yl)-4-methylphenyl) isonicotinamide] | 9.70 |  |
| COc1ncc(-c2cc(NC(=O)c3ccnc(C(C)(C)C#N)c3)cnc2C)cc1C1(F)COC1 [Example 80, 2-(2-cyanopropan-2-yl)-N-(5′-(3-fluorooxetan-3-yl)-6′-methoxy-2-methyl-[3,3′-bipyridin]-5-yl)isonicotinamide] | 8.70 |  |
| Cc1ccc(NC(=O)c2cc(C(F)(F)F)ccn2)cc1-c1cc(OCCO)nc(C2(CF)CCOCC2)c1 [Example 214, N-(3-(2-(4-(fluoromethyl)tetrahydro-2H-pyran-4-yl)-6-(2-hydroxyethoxy)pyridin-4-yl)-4-methylphenyl)-4-(trifluoromethyl) picolinamide] | 9.52 |  |
| Cc1ncc(NC(=O)c2ccc(CO)c(C(F)(F)F)c2)cc1-c1cccc(C2COC2)c1 [Example 7] | 9.00 |  |
| Cc1ccc(NC(=O)c2ccnc(C(C)(F)F)c2)cc1-c1cc(OCCO)nc(C2(C)CCOCC2)c1 [Example 206, 2-(1,1-difluoroethyl)-N-(3-(2-(2-hydroxyethoxy)-6-(4-methyltetrahydro-2H-pyran-4-yl)pyridin-4-yl)-4-methylphenyl) isonicotinamide] | 9.40 |  |

Continued, values first:

| pIC50 (C-Raf FL) | pIC50 (b-Raf (V600E)) | Structure (SMILES) |
| --- | --- | --- |
| 10.00 |  | CCOc1nnc(-c2cc(NC(=O)NCCC(C)(C)C)ccc2C)cc1C1CCOCC1 [Example 318, 1-(3,3-dimethylbutyl)-3-(3-(6-ethoxy-5-(tetrahydro-2H-pyran-4-yl)pyridazin-3-yl)-4-methylphenyl)urea] |
| 9.08 |  | Cc1ccc(NC(=O)c2ccnc(C(F)(F)F)c2)cc1-c1cc(OCCO)nc(C2(F)CCOCC2)c1 [Example 306, N-(3-(2-(4-fluorotetrahydro-2H-pyran-4-yl)-6-(2-hydroxy-ethoxy)pyridin-4-yl)-4-methyl-phenyl)-2-(trifluoromethyl) isonicotinamide] |
| 10.00 |  | Cc1ccc(NC(=O)c2cccc(C(F)(F)F)c2)cc1-c1cc(NCCO)nc(C2(O)COC2)c1 [Example 300, N-(3-(2-((2-hydroxyethyl)amino)-6-(3-hydroxyoxetan-3-yl)pyridin-4-yl)-4-methylphenyl)-3-(trifluoromethyl) benzamide] |
| 8.70 |  | CCOc1ncc(-c2cc(NC(=O)c3cccc(C(F)(F)F)c3)cnc2C)cc1C1(O)CCOC1 (stereo not shown) [Example 294, N-(6′-ethoxy-5′-(3-hydroxytetrahydro-furan-3-yl)-2-methyl-[3,3′-bipyridin]-5-yl)-3-(trifluoromethyl) benzamide] |
| 8.70 |  | Cc1ccc(NC(=O)c2cc(C(F)(F)F)c(Cl)cn2)cc1-c1cc(OCCO)nc(C2CCOCC2)c1 [Example 266, 5-chloro-N-(3-(2-(2-hydroxyethoxy)-6-(tetrahydro-2H-pyran-4-yl)pyridin-4-yl)-4-methylphenyl)-4-(trifluoromethyl) picolinamide] |
| 8.70 |  | CCOc1ncc(-c2cc(NC(=O)c3ccnc(C(C)(C)C#N)c3)ccc2C)cc1C1(O)CCOC1 (stereo not shown) [Example 293, 2-(2-cyanopropan-2-yl)-N-(3-(6-ethoxy-5-(3-hydroxytetrahydro-furan-3-yl)pyridin-3-yl)-4-methylphenyl) isonicotinamide] |
| 10.15 |  | Cc1ccc(NC(=O)c2ccnc(Cl)c2)cc1-c1cc(OC[C@H](O)CO)nc(C2CCOCC2)c1 [Example 280, (R)-2-chloro-N-(3-(2-(2,3-dihydroxypropoxy)-6-(tetrahydro-2H-pyran-4-yl)pyridin-4-yl)-4-methylphenyl) isonicotinamide] |
| 9.41 |  | Cc1ccc(NC(=O)c2ccnc(C(F)(F)F)c2)cc1-c1cc(NCCO)nc(C2(O)CCOCC2)c1 [Example 287, N-(3-(2-((2-hydroxyethyl)amino)-6-(4-hydroxytetrahydro-2H-pyran-4-yl)pyridin-4-yl)-4-methylphenyl)-2-(trifluoromethyl)isonicotinamide] |
| 10.00 |  | Cc1ccc(NC(=O)NCCC(C)(C)C)cc1-c1cc(OCCO)nc(C2CCOCC2)c1 [Example 319, 1-(3,3-dimethylbutyl)-3-(3-(2-(2-hydroxyethoxy)-6-(tetrahydro-2H-pyran-4-yl)pyridin-4-yl)-4-methylphenyl)urea] |
